Measurements reported in paper PMC11242173 (International Journal of Molecular Sciences, 2024).
Values after ≈ are worked out from the molar mass of the structure shown.

Experiments:
HCT-8 cells = test: Cytotoxicity (cell viability) assay in HCT-8 cells; assay type: cell-based, human; conditions: uninfected HCT-8 cells, 72 h
Experimental: HCT-8, MRC5, A549, and Calu-3 cells seeded on 96-well plates 24 h before the assay were exposed to increasing concentrations of compounds or the vehicle as a control. Cytotoxicity was evaluated after 48 h for MRC5 and Calu-3 cells or after 72 h for A549 and HCT-8 cells, using the CellTiter-Glo assay (Promega, Milan, Italy) or the ATPlite assay (PerkinElmer, Milan, Italy). The cytotoxicity of the tested compounds was expressed as cytotoxic concentration (CC50).

hCoV-OC43 = test: Focus forming reduction assay (FFRA), hCoV-OC43 in HCT-8 cells; conditions: for EC50 / EC90: hCoV-OC43, FFRA in HCT-8 cells, treatment before, during and after infection, 72 h p.i.; for SI (ratio of CC50 to EC50): hCoV-OC43, HCT-8 cells

Row | Structure (SMILES) | CC50 (HCT-8 cells) [µg/mL] | EC50 (hCoV-OC43) [µg/mL] | EC90 (hCoV-OC43) [µg/mL] | SI (ratio of CC50 to EC50) (hCoV-OC43)
1 | Oc1cc(O)c2c(c1)OC1(c3ccc(O)c(O)c3)Oc3cc(O)c4c(c3C2C1O)OC(c1ccc(O)c(O)c1)C(O)C4 (centres unmarked) [PAC A1, PAC-A1] | >400 | 4.10 ± 0.71 (≈ 7.11 µM) | 139.35 ± 2.06 (≈ 242 µM) | >97.56
2 | Oc1cc(O)c2c(c1)O[C@@]1(c3ccc(O)c(O)c3)Oc3cc(O)c4c(c3[C@@H]2[C@H]1O)O[C@H](c1ccc(O)c(O)c1)[C@H](O)C4 [PAC A2, PAC-A2] | >400 | 6.58 ± 0.40 (≈ 11.4 µM) | 100.74 ± 0.66 (≈ 175 µM) | >60.79
3 | Oc1cc(O)c2c(c1)O[C@H](c1ccc(O)c(O)c1)[C@H](O)[C@H]2c1c(O)cc(O)c2c1O[C@H](c1ccc(O)c(O)c1)[C@@H](O)C2 [PAC B1, PAC-B1] | >400 | 167.02 ± 6.51 (≈ 289 µM) | >400 | >2.39
4 | Oc1cc(O)c2c(c1)O[C@H](c1ccc(O)c(O)c1)[C@H](O)[C@H]2c1c(O)cc(O)c2c1O[C@H](c1ccc(O)c(O)c1)[C@H](O)C2 [PAC B2, PAC-B2] | >400 | 142.41 ± 8.93 (≈ 246 µM) | >400 | >2.81
5 | Oc1cc(O)c2c(c1)O[C@H](c1ccc(O)c(O)c1)[C@@H](O)[C@@H]2c1c(O)cc(O)c2c1O[C@H](c1ccc(O)c(O)c1)[C@@H](O)C2 [PAC B3, PAC-B3] | >400 | 134.92 ± 4.14 (≈ 233 µM) | >400 | >2.96
